Test results from PMC3758320, “Fate of Ingested Clostridium difficile Spores in Mice” (PLoS ONE, 2013).
Each block holds one molecule with its values, some of them ahead of it.

Key:
C. difficile spores [1] = assay: Prevention of CDI by bile salt analogs in mice challenged with C. difficile spores; type: in vivo, C57BL/6N mice; settings: for CDI signs: mice challenged with 10^8 CFU C. difficile spores, three doses
[2] = Stability in artificial gastric juice; type: in vitro ADME; settings: 24 hours incubation, 37°C, TLC
Experimental: (§1) CamSA was analyzed for stability in simulated gastric and intestinal juices as published. Briefly, 100 mg CamSA was added to 1 ml of either artificial intestinal or artificial gastric juice and incubated at 37°C. Aliquots were taken at 4, 8, 12, and 24 hours. Samples (1 µl) were spotted on silica TLC plates and allowed to air dry. Plates were developed with 75% ethyl acetate/methanol. TLC plates were visualized by spraying with a 10% wt/vol phosphomolybdic acid (PMA)/ethanol solution followed by heating at 100°C for 2 minutes. Quantification of CamSA was determined using a GE Healthcare Typhoon 9410 Variable Mode Imager and analyzed using ImageQuant TL 5.2 software.

[3] = Stability in artificial intestinal juice; type: in vitro ADME; settings: 24 hours incubation, 37°C, TLC
Experimental: as §1

[4] = Stability in growth medium alone; type: in vitro ADME
Experimental: Following previous procedures, Escherichia coli DH5α, Bifidobacterium longum (ATCC BAA-999) and Lactobacillus gasseri (ATCC 33323) were incubated for 24 hours at 37°C. […] Samples of spent media were taken at 4, 8, 12, and 24 hours. Bile salt concentration was monitored by TLC as above. Percent conjugated bile salts were derived by dividing the intensity of TLC spots obtained at different times by the intensity of the TLC spot obtained before incubation.

E. coli [5] = assay: Effect on bacterial growth (E. coli); type: cell-based, E. coli DH5α; settings: 10 mM in growth medium, OD580 over 8 hours
Experimental: (§2) Laboratory strains of E. coli DH5α, B. longum, L. gasseri, and C. difficile were individually inoculated from freezer stock onto appropriate agar medium as directed by ATCC. Plates were incubated overnight at 37°C either aerobically (L. gasseri and E. coli) or anaerobically (C. difficile and B. longum). Anaerobic conditions consisted of a 5% CO2, 10% H2, and 85% N2 environment. Single cell clones were carefully selected and used to inoculate 5 mL of liquid medium. Inoculated broth was shaken at 37°C for approximately four hours until optical density at 580 nm reached 0.8 representing exponential phase of growth. […] An increase of optical density at 580 nm (OD580) was used to measure exponential bacterial growth. The OD580 was recorded at 0, 1, 2, 3, 4, 6, and 8 hours post subculture inoculation. Growth inhibition was determined by comparing optical density of bile salt-treated cultures with untreated control cultures.

B. longum [6] = type: cell-based
L. gasseri [7] = type: cell-based
C. difficile = assay: Effect on bacterial growth (C. difficile vegetative cells); type: cell-based; settings: 10 mM in growth medium, OD580 over 8 hours
Experimental: as §2

Vero cells [8] = assay: Cytotoxicity in Vero cells; type: cell-based; settings: overnight
Experimental: (§3) Vero cells, Caco-2 cells, and murine macrophages J774A.1 were seeded in complete medium (minimum essential medium (MEM), 10% fetal bovine serum (FBS), and 1% penicillin/streptomycin). Cells were grown at 37°C with 5% CO2. Cells were detached by incubation with 1 mM EDTA-trypsin for 5 minutes. Complete medium was then added and monolayers lifted with a cell scraper. Cells were recovered at 800×g for 5 minutes at room temperature and the cell pellet was resuspended in fresh complete medium. A sample of cell suspension was treated with trypan blue to determine background non-viable cells. […]
(§4) The 12-well plates containing cell cultures were used as a qualitative method to determine cytotoxicity by visual observation of morphological changes, such as cell rounding. Cell viability was also determined by trypan blue dye exclusion staining. The 96-well plates cultured with mammalian cells were used as a quantitative method to determine cytotoxicity using the CellTiter Glo Luminescent cell viability assay. This assay quantitates the concentration of ATP, which indicates metabolically active cells. […] Luminescence was read with an integration time of 1 second per well using a Tecan Infinite 200 plate reader and iControl software. The luminescence signals from cell cultures supplemented with DMSO only were set as 100% cell viability. […]

Caco-2 cells = assay: Cytotoxicity in Caco-2 cells; type: cell-based; settings: overnight
Experimental: as §3, §4

[9] = tested on: murine macrophages J774A.1; assay: Cytotoxicity in murine macrophages J774A.1; type: cell-based; settings: macrophage cells, overnight
Experimental: as §3, §4

C. difficile spores [10] = assay: Outgrowth of C. difficile spores in germination medium; type: cell-based, C. difficile strain 630; settings: 200 µM in medium, overnight
Vero cells [11] = assay: C. difficile toxin-induced cell death (spent media on Vero cells); type: cell-based; settings: 200 µM; Vero cells exposed 24 hours
Experimental: C. difficile strain 630 spores were washed five times with nanopure water, heat activated at 68°C for 30 minutes and washed five more times with water. Spore pellets were resuspended in 0.1 M sodium phosphate buffer supplemented with 0.5% sodium bicarbonate (pH 6.0) to an OD580 of 1.0. […] Spore suspensions were incubated anaerobically at 37°C overnight. The following day, C. difficile cells and spores were removed by centrifugation and spent media filter sterilized. In parallel, Vero and Caco-2 cells were cultured in 96-well plates, as described above. The mammalian cell cultures were then exposed to varying concentrations of sterile spent media for 24 hours. Cell viability was determined as before with the CellTiter Glo viability kit. The luminescence signals from cell cultures supplemented with 0% spent media were set as 100% cell viability. Percent survival for other conditions was calculated relative to these untreated cells.

C. difficile spores [12] = assay: Onset of CDI signs in mice (timing of dosage); type: in vivo, C57BL/6N mice
Experimental: Antibiotic treated mice were challenged by oral gavage with 10^8 CFUs of C. difficile strain 630 spores. Individual groups of five mice were treated with a single 300 mg/kg dose of CamSA at 0, 6, 9 or 12 hours post-spore challenge. A second 300 mg/kg dose of CamSA was administered 24 hours after the first dose.

C. difficile spores [13] = assay: Enumeration of C. difficile vegetative cells and spores in GI contents and feces of treated mice; type: in vivo, C57BL/6N mice
Experimental: Cages from infected animals were changed and feces were collected at different time points. Selected animals were sacrificed at different time points and their GI tract observed for signs of disease. Gastrointestinal tracts were removed in blocks and GI tract contents were flushed with autoclaved water. Feces and intestinal contents were weighed and homogenized in autoclaved water. Aliquots of the fecal suspensions were heated to 68°C for 30 minutes. Heated and unheated feces and GI tract contents were serially diluted in water and plated on Clostridium difficile selective agar (CDSA). Plates were incubated anaerobically for 48 hours and colonies were counted to enumerate colony-forming units (CFUs). CFUs obtained from unheated samples represent the sum of C. difficile vegetative cells and spores. CFUs obtained from heated samples represent the number of C. difficile spores only. The presence of C. difficile was verified by PRO disk.

C. difficile spores [14] = tested on: C. difficile spores; parameters: method as in PMID 23420906; settings: single 50 mg/kg dose; without any observable toxicity; cited from earlier work
Caco-2 cell monolayer = assay: Caco-2 permeability assay
mice [15] = assay: Acute toxicity in mice (Fixed Dose Procedure); settings: oral gavage, three consecutive days, doses up to saturating 300 mg/kg
E. coli [16] = assay: Stability after incubation with E. coli cultures; settings: 24 hour incubation
B. longum [17] = assay: Stability after incubation with BSH-producing bacteria (B. longum); settings: 24 hours, 6 mM bile salt
L. gasseri [18] = assay: Stability after incubation with BSH-producing bacteria (L. gasseri); settings: 24 hours, 6 mM bile salt
[19] = Caco-2 permeability assay; settings: human, Caco-2
mice [20] = settings: mouse, in vivo, po
[21] = tested on: C. difficile spore germination; parameters: method as in PMID 21478359; settings: in vitro; read-out: IC50, inhibition of C. difficile spore germination; cited from earlier work
[22] = 300 mg/kg given at 9 or 12 hours post-challenge
[23] = Caco-2, 10 µM, 2 hour incubation

Structure (SMILES): C[C@H](CCC(=O)Nc1cccc(S(=O)(=O)O)c1)[C@H]1CC[C@H]2[C@@H]3[C@H](O)C[C@@H]4C[C@H](O)CC[C@]4(C)[C@H]3C[C@H](O)[C@]12C [CamSA]
- CDI signs (C. difficile spores [1]; 50 mg/kg oral gavage): no sign of CDI
- CDI signs (C. difficile spores [1]; 300 mg/kg oral gavage): no sign of CDI
- time without signs of CDI post-challenge (C. difficile spores [1]; treated, spore-challenged mice): ≥ 14 days
- degradation in artificial gastric juice [2]: No degradation
- degradation in artificial intestinal juice [3]: No degradation
- degradation in growth medium alone [4]: not degraded
- growth of E. coli (E. coli [5]): unaffected
- growth of B. longum (B. longum [6]): unaffected
- growth of L. gasseri (L. gasseri [7]): unaffected
- growth of C. difficile cells (C. difficile): grew normally
- cell viability, visual observation and trypan blue staining (Vero cells [8]): appeared healthy
- cell viability, visual observation and trypan blue staining (Caco-2 cells): appeared healthy
- cell viability, visual observation and trypan blue staining [9]: appeared healthy
- bacterial growth from C. difficile spores (C. difficile spores [10]): reduced but not eliminated
- cell killing by spent media from treated bacterial cultures (Vero cells [11]): less effective at killing epithelial cells
- CDI outcome (C. difficile spores [12]; [22]): developed severe CDI
- time to clinical endpoint post infection (C. difficile spores [12]; [22]): 48 h
- protection from CDI (C. difficile spores [12]; 300 mg/kg given up to 6 hours post-challenge): fully protected from CDI
- C. difficile vegetative cells in feces compared to spore counts (C. difficile spores [13]; mice treated with 50 mg/kg): < 10%
- C. difficile content of feces (C. difficile spores [13]; treated mice): almost exclusively spores
- spores recovered from the cecum and colon (C. difficile spores [13]; treated mice, before the decrease (up to 72 hours after spore challenge)): greater than 12×10^5 CFUs
- spores recovered from the cecum and colon (C. difficile spores [13]; treated mice, by 96 hours after spore challenge): less than 2×10^5 CFUs
- duration of excretion of ingested C. difficile spores post-challenge (C. difficile spores [13]; treated mice, feces): at least 96 hours
- start of excretion of ingested C. difficile spores post-challenge (C. difficile spores [13]; treated mice, feces): 2 h
- prevention of CDI in mice (C. difficile spores [14]): prevented CDI
- Comment: efflux (Caco-2 cell monolayer; 10 µM, two hours): Efflux substrate
- Comment: permeability ranking (Caco-2 cell monolayer; 10 µM, two hours): Low (Low (Papp < 0.5))
- Efflux Ratio (Caco-2 cell monolayer; 10 µM, two hours, >2 indicates significant efflux activity): >2
- apical to basolateral apparent permeability coefficient (Papp) (Caco-2 cell monolayer; [23]): < 10^−6 cm/s
- basolateral to apical Papp (Caco-2 cell monolayer; [23]): 10.9 ×10⁻⁶ cm/s
- recovery (Caco-2 cell monolayer; both A→B and B→A assays): 100%
- physical adverse effects or weight loss (mice [15]): No physical adverse effects or weight loss
- stability in E. coli cultures (E. coli [16]): stable
- hydrolysis to cholic acid by B. longum culture (B. longum [17]): hydrolyzed to cholic acid at similar rates
- fraction hydrolyzed to cholic acid by L. gasseri culture (L. gasseri [18]): Less than 30%

- Papp A→B at 2 h, 10 µM [19]: 0.3 ×10⁻⁶ cm/s
- Papp at 2 h, 10 µM [19]: < 0.5 ×10⁻⁶ cm/s
- efflux ratio at 2 h, 10 µM [19]: 5.3
Structure (SMILES): CNC(=C[N+](=O)[O-])NCCSCc1ccc(CN(C)C)o1 [Ranitidine]

- Papp A→B at 2 h, 10 µM [19]: 42.9 ×10⁻⁶ cm/s
- Papp B→A at 2 h, 10 µM [19]: 16 ×10⁻⁶ cm/s
- Papp at 2 h, 10 µM [19]: > 5 ×10⁻⁶ cm/s
- efflux ratio at 2 h, 10 µM [19]: 0.4
Structure (SMILES): CC(=O)CC(c1ccccc1)c1c(O)c2ccccc2oc1=O (centres unmarked) [Warfarin]

Structure (SMILES): C[C@H](CCC(=O)O)[C@H]1CC[C@H]2[C@@H]3[C@H](O)C[C@@H]4C[C@H](O)CC[C@]4(C)[C@H]3CC[C@]12C [chenodeoxycholate]
- delay of CDI onset (C. difficile spores [1]; 50 mg/kg): 24 h
- CDI signs (C. difficile spores [1]; 50 mg/kg oral gavage): moderate to severe signs of CDI
- observable side effects (mice [20]; 50 mg/kg): did not cause any observable side effects
- acute toxicity outcome (mice [20]; 300 mg/kg): immediate death
- IC50 [21]: 235 µM
